How the values were obtained:
Format in all cases: cell-based, mouse
[1] = tested on: Dll4-mediated Notch signaling; test: MCP-1 expression in differentiated 3T3-L1 adipocytes
Protocol: 3T3-L1 preadipocytes (American Type Culture Collection) were maintained in Dulbecco's modified Eagle's medium (DMEM) (Gibco) containing 10% FBS. Differentiation of 3T3-L1 preadipocytes to mature adipocytes was performed as previously described and used as differentiated 3T3-L1 adipocytes at day 10 after the induction of differentiation. Differentiation was initiated two days after cells were confluent by adding fresh medium containing 0.5 mM isobutylmethylxanthine, 1 μM dexamethasone, and 10 μg/ml insulin. After two days, the methylisobutylxanthine and dexamethasone were removed and insulin was maintained for two additional days. On day 4 and thereafter, DMEM containing only 10% FBS was replaced every two days. […]
Applicants transfected siRNA against mouse Dll4 (Dharmacon), plasmid encoding mouse Dll4 (GeneCopoeia), RBP-Jκ reporter (SABiosciences), and Notch3 intracellular domains (N3ICD) to 3T3-L1 adipocytes by electroporation (Nucleofector system; Amaxa) according to the manufacturer's instructions. […] Luciferase activity was determined using a Dual-Luciferase Reporter Assay System (Promega). […]
(§1) Applicants synthesized cDNA from total RNA extracted from tissues and cells. Real-time quantitative RT-PCR was done with a MyiQ single-color real-time PCR detection system (BioRad) and PerfeCTa SYBR Green SuperMix for iQ (Quanta Biosciences). […]

[2] = tested on: Dll4-mediated Notch signaling; test: M1/M2 gene expression in RAW264.7 cells
Protocol: RAW264.7 cells (American Type Culture Collection) were also maintained in DMEM containing 10% FBS. For blockade of Dll4-mediated Notch signaling, Applicants pre-treated RAW264.7 cells with Dll4 Ab or IgG for 2 hours and then stimulated these cells with 1 ng/ml LPS for 24 hours. LPS stimulation activates the Notch signaling in RAW264.7 cells.
Applicants transfected siRNA against mouse Dll4 (Dharmacon), plasmid encoding mouse Dll4 (GeneCopoeia), RBP-Jκ reporter (SABiosciences), and Notch3 intracellular domains (N3ICD) to 3T3-L1 adipocytes by electroporation (Nucleofector system; Amaxa) according to the manufacturer's instructions. The Dll4-expressing plasmid was also transfected to RAW264.7 cells. N3ICD was a generous gift from Dr. Shigeru Chiba (Department of Clinical and Experimental Hematology, Graduate School of Comprehensive Human Sciences, University of Tsukuba). Applicants transfected 2 μg of siRNA or plasmid to cells and harvested them 48 hours or 24 hours after transfection, respectively. […] Luciferase activity was determined using a Dual-Luciferase Reporter Assay System (Promega). […]
as §1

RBP-Jκ reporter = RBP-Jκ reporter luciferase assay in 3T3-L1 adipocytes; details: 3T3-L1 adipocytes on rDll4-coated plates
Source text: Applicants transfected siRNA against mouse Dll4 (Dharmacon), plasmid encoding mouse Dll4 (GeneCopoeia), RBP-Jκ reporter (SABiosciences), and Notch3 intracellular domains (N3ICD) to 3T3-L1 adipocytes by electroporation (Nucleofector system; Amaxa) according to the manufacturer's instructions. The Dll4-expressing plasmid was also transfected to RAW264.7 cells. N3ICD was a generous gift from Dr. Shigeru Chiba (Department of Clinical and Experimental Hematology, Graduate School of Comprehensive Human Sciences, University of Tsukuba). Applicants transfected 2 μg of siRNA or plasmid to cells and harvested them 48 hours or 24 hours after transfection, respectively. Applicants used 5 μl of RBP-Jκ reporter solution for each transfection. After incubation for 24 hours, cells were seeded to rDll4-coated plates and used for the luciferase assay after 48-hour incubation. Luciferase activity was determined using a Dual-Luciferase Reporter Assay System (Promega). Applicants transfected 5 μg of N3ICD to cells and harvested them 24 hours after transfection.

NF-κB pathway = test: NF-κB activation in 3T3-L1 adipocytes (immunoblotting, immunocytochemistry)
Protocol: Differentiated 3T3-L1 adipocytes were starved for 16 hours and then used for in vitro experiments. For blockade Dll4-mediated Notch signaling, Applicants treated 3T3-L1 adipocytes with Dll4 Ab or IgG (10 μg/ml) and γ-secretase inhibitor (DAPT, 10 μM) or DMSO for 24 hours. To activate Dll4-mediated Notch signaling, Applicants seeded 3T3-L1 adipocytes to plates coated with recombinant mouse Dll4 (rDll4) (1 μg/ml), and then harvested cells after 48-hour incubation (Williams, et al., Blood 107:931-939 (2006)). Applicants also used SN50 (25 μg/ml) NF-κB inhibitor to determine the interaction between Notch signaling and the NF-κB pathway.
Differentiated 3T3-L1 adipocytes incubated in rDll4-coated plates were fixed in 4% paraformaldehyde and permeabilized with 0.1% NP40. After blocking with 1% goat serum, cells were incubated with a rabbit anti-p65 antibody (Santa Cruz Biotechnology), followed by an Alexa Fluor 594-conjugated donkey anti-rabbit Ig antibody (Molecular Probes). Nuclei were counterstained with Hoechst 33342 (Sigma). Cells were observed under an ECLIPSE TE2000-U (Nikon) equipped with a mercury illumination system and SPOT RT Camera (Diagnostic Instruments, Inc.).
Lysates prepared from tissues and cells in lysis buffer containing protease inhibitor cocktail (Sigma) and phosphatase inhibitor cocktail (Roche) were separated with SDS-PAGE gels. Applicants used the following antibodies: NF-κB p65 (Santa Cruz Biotechnology), phospho-NF-κB p65 (Rock Land), IK-Bα (Cell Signaling), and β-actin (Sigma).

C[C@H](NC(=O)Cc1cc(F)cc(F)c1)C(=O)N[C@H](C(=O)OC(C)(C)C)c1ccccc1 [DAPT]
MCP-1 RNA expression ([1]; differentiated 3T3-L1 adipocytes, blockade of Notch signaling): produced a similar effect

rDll4: recombinant mouse Dll4 coated on plates to activate Dll4-mediated Notch signaling
anti-inflammatory M2 genes (e.g., IL-10) [2]: suppressed | expression of pro-inflammatory M1 genes such as IL-1β and iNOS [2]: induced expression | MCP-1 expression ([1]; 3T3-L1 adipocytes cultured on rDll4-coated dishes): promoted | RBP-Jκ reporter activity (RBP-Jκ reporter): Stimulation | degradation of IκBα (NF-κB pathway): increased | nuclear translocation of p65 (NF-κB pathway): increased | phosphorylation of NF-κB subunit p65 (NF-κB pathway): increased

Source: patent publication US8889131B2, “NOTCH inhibition in the treatment and prevention of a metabolic disease or disorder and cardiovascular complications thereof” (The Brigham and Women's Hospital, Inc., priority 2009, dated 2014)
